This is an account of results in US11180474B2 (BRISTOL-MYERS SQUIBB COMPANY, priority 2016, dated 2021).

Structures are written as SMILES.

For the assay, the target named is T1, human TLR8 (Homo sapiens, UniProt Q9NR97).
T1 construct: host or cells: HEK-Blue cells
T1 sequence (Q9NR97 27-1041): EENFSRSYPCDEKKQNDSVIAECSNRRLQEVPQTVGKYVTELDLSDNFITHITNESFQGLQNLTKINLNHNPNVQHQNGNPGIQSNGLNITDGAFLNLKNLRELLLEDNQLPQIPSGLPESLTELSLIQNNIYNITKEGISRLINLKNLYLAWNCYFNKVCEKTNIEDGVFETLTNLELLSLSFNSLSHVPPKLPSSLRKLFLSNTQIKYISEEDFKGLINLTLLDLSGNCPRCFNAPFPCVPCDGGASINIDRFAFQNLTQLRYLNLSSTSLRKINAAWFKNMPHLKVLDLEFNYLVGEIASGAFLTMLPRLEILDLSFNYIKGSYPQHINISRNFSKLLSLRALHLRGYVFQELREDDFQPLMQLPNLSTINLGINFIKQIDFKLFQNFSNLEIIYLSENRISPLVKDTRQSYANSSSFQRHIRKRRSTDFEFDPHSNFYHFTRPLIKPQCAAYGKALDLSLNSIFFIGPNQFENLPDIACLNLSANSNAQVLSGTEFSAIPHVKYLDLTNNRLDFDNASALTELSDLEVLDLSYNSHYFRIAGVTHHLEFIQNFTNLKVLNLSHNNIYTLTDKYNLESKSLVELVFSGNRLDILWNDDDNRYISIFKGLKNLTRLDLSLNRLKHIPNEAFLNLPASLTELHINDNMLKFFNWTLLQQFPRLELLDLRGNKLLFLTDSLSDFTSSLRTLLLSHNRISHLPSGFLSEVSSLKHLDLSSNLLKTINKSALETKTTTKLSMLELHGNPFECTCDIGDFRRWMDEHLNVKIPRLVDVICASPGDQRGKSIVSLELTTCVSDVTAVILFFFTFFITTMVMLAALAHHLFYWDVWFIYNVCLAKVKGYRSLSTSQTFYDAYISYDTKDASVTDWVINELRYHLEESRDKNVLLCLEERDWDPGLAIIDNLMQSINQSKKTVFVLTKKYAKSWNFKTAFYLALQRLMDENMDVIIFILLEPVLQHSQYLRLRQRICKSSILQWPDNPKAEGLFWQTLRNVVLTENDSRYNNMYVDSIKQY
Nature of the assay: TLR8 inhibition reporter assay (HEK-Blue cells, SEAP reporter, R848 stimulation). The format is cell-based. The following applies: HEK-Blue cells overexpressing human TLR8, R848 15.9 μM. The method, boiled down: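 Cells (15000/well for TLR7, 20,000 for TLR8) were treated with compounds over 0.05 nM-50 μM final. After 22 h at 37° C, 5% CO2, SEAP was measured with HEK-Blue Detection reagent; percent inhibition was taken as reduction of agonist-plus-DMSO signal relative to a known inhibitor.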
In general terms: A reporter such as luciferase makes a cellular process visible.
Take `COc1ccc(-c2[nH]c3ccc(C4CCN(C(=O)CN[C@H]5CC[C@H](N)CC5)CC4)cc3c2C(C)C)cc1OC` [Example 232, 2-(((1r,4r)-4-aminocyclohexyl)amino)-1-(4-(2-(3,4-dimethoxyphenyl)-3-isopropyl-1H-indol-5-yl)piperidin-1-yl)ethan-1-one]: it took 169 nM to reach half-maximal inhibition (IC50).
Next, `COc1ccc(-c2[nH]c3ccc(C4CCN(C(=O)CN[C@@H](CO)CC(C)C)CC4)cc3c2C(C)C)cc1OC` [Example 234, (R)-1-(4-(2-(3,4-dimethoxyphenyl)-3-isopropyl-1H-indol-5-yl)piperidin-1-yl)-2-((1-hydroxy-4-methylpentan-2-yl)amino) ethan-1-one]: 63 nM; `COc1ccc(-c2[nH]c3ccc(C4CCN(C(=O)CN5CCC[C@H](C(=O)N6CC[C@H](O)C6)C5)CC4)cc3c2C(C)C)cc1OC` [Example 301, 1-(4-(2-(3,4-dimethoxyphenyl)-3-isopropyl-1H-indol-5-yl)piperidin-1-yl)-2-((S)-3-((S)-3-hydroxypyrrolidine-1-carbonyl)piperidin-1-yl)ethan-1-one]: 19 nM; `COc1ccc(-c2[nH]c3ccc(C4CCN(C(=O)CN5CCC[C@H](C(=O)N6CC7CNCC7C6)C5)CC4)cc3c2C(C)C)cc1OC` (some centres unmarked) [Example 299, 1-(4-(2-(3,4-dimethoxyphenyl)-3-isopropyl-1H-indol-5-yl)piperidin-1-yl)-2-((3 S)-3-(octahydropyrrolo[3,4-c]pyrrole-2-carbonyl)piperidin-1-yl)ethan-1-one]: 128 nM.
The result for `COc1ccc(-c2[nH]c3ccc(C4CCN(C(=O)CN5CCC[C@@H](C(=O)N(C)C(C)C)C5)CC4)cc3c2C(C)C)cc1OC` [Example 304, (R)-1-(2-(4-(2-(3,4-dimethoxyphenyl)-3-isopropyl-1H-indol-5-yl)piperidin-1-yl)-2-oxoethyl)-N-isopropyl-N-methylpiperidine-3-carboxamide] reads 61 nM.
For `COc1ccc(-c2[nH]c3ccc(C4CCN(C(=O)CN5CCOCC5)CC4)cc3c2C(C)C)cc1OC` [Example 223, 1-(4-(2-(3,4-dimethoxyphenyl)-3-isopropyl-1H-indol-5-yl)piperidin-1-yl)-2-morpholinoethan-1-one], the half-inhibitory concentration (IC50) (in general, the point on the concentration scale where inhibition reaches its midpoint) was 98 nM.
In turn, `COc1ccc(-c2[nH]c3ccc(C4CCN(C(=O)CN5CCC[C@H](C(=O)N(C)C(C)C)C5)CC4)cc3c2C(C)C)cc1OC` [Example 288, (S)-1-(2-(4-(2-(3,4-dimethoxyphenyl)-3-isopropyl-1H-indol-5-yl)piperidin-1-yl)-2-oxoethyl)-N-isopropyl-N-methylpiperidine-3-carboxamide] displayed an IC50 of 32 nM.
The result for `COc1ccc(-c2[nH]c3ccc(C4CCN(C(=O)CN5CCC[C@H](C(=O)NCC#N)C5)CC4)cc3c2C(C)C)cc1OC` [Example 297, (S)—N-(cyanomethyl)-1-(2-(4-(2-(3,4-dimethoxyphenyl)-3-isopropyl-1H-indol-5-yl)piperidin-1-yl)-2-oxoethyl)piperidine-3-carboxamide] reads 19 nM; that for `COc1ccc(-c2[nH]c3ccc(C4CCN(CC(=O)NCCO)CC4)cc3c2C(C)C)cc1OC` [Example 276, 2-(4-(2-(3,4-dimethoxyphenyl)-3-isopropyl-1H-indol-5-yl)piperidin-1-yl)-N-(2-hydroxyethyl) acetamide], 27 nM; that for `COc1ccc(-c2[nH]c3ccc(C4CCN(CC(=O)N5CC[C@H](O)C5)CC4)cc3c2C(C)C)cc1OC` [Example 278, (S)-2-(4-(2-(3,4-dimethoxyphenyl)-3-isopropyl-1H-indol-5-yl)piperidin-1-yl)-1-(3-hydroxypyrrolidin-1-yl)ethan-1-one], 11 nM.
In turn, `CCN(CC)C(=O)C1CCCN(CC(=O)N2CCC(c3ccc4[nH]c(-c5ccc(OC)c(OC)c5)c(C(C)C)c4c3)CC2)C1` (centres unmarked) [Example 224, 1-(2-(4-(2-(3,4-dimethoxyphenyl)-3-isopropyl-1H-indol-5-yl)piperidin-1-yl)-2-oxoethyl)-N,N-diethylpiperidine-3-carboxamide] gave a half-maximal inhibitory concentration (IC50) of 27 nM.
Next, `COc1ccc(-c2[nH]c3ccc(C4CCN(C(=O)CN5CCCN(C(C)=O)CC5)CC4)cc3c2C(C)C)cc1OC` [Example 222, 2-(4-acetyl-1,4-diazepan-1-yl)-1-(4-(2-(3,4-dimethoxyphenyl)-3-isopropyl-1H-indol-5-yl)piperidin-1-yl)ethan-1-one]: 67 nM; `COc1ccc(-c2[nH]c3ccc(C4CCN(C(=O)CN5CCCC(C(=O)NC6CCN(C(C)C)CC6)C5)CC4)cc3c2C(C)C)cc1OC` (single isomer, unassigned) [Example 281, 1-(2-(4-(2-(3,4-dimethoxyphenyl)-3-isopropyl-1H-indol-5-yl)piperidin-1-yl)-2-oxoethyl)-N-(1-isopropylpiperidin-4-yl)piperidine-3-carboxamide]: 20 nM.
For `COc1ccc(-c2[nH]c3ccc(C4CCN(C(=O)CNCCOCCO)CC4)cc3c2C(C)C)cc1OC` [Example 230, 1-(4-(2-(3,4-dimethoxyphenyl)-3-isopropyl-1H-indol-5-yl)piperidin-1-yl)-2-((2-(2-hydroxyethoxy)ethyl)amino)ethan-1-one], the IC50 was 18 nM.
For `COc1ccc(-c2[nH]c3ccc(C4CCN(Cc5cnc[nH]5)CC4)cc3c2C(C)C)cc1OC` [Example 268, 5-(1-((1H-imidazol-5-yl)methyl)piperidin-4-yl)-2-(3,4-dimethoxyphenyl)-3-isopropyl-1H-indole], inhibition was half-maximal at 15 nM (IC50).
Consider `COc1ccc(-c2[nH]c3ccc(C4CCN(C(=O)CNC5CCC(O)CC5)CC4)cc3c2C(C)C)cc1OC` (centres unmarked) [Example 246, 1-(4-(2-(3,4-dimethoxyphenyl)-3-isopropyl-1H-indol-5-yl)piperidin-1-yl)-2-((4-hydroxycyclohexyl)amino)ethan-1-one], for which the midpoint of inhibition, the IC50, lay at 19 nM.
Next, `COc1ccc(-c2[nH]c3ccc(C4CCN(C(=O)CN5CCCC(C(=O)NC6CCN(C(C)C)CC6)C5)CC4)cc3c2C(C)C)cc1OC` (single isomer, unassigned) [Example 280, 1-(2-(4-(2-(3,4-dimethoxyphenyl)-3-isopropyl-1H-indol-5-yl)piperidin-1-yl)-2-oxoethyl)-N-(1-isopropylpiperidin-4-yl)piperidine-3-carboxamide]: 22 nM.
Next, `COc1ccc(-c2[nH]c3ccc(C4CCN(C(=O)CN[C@H](CO)CC(C)C)CC4)cc3c2C(C)C)cc1OC` [Example 231, (S)-1-(4-(2-(3,4-dimethoxyphenyl)-3-isopropyl-1H-indol-5-yl)piperidin-1-yl)-2-((1-hydroxy-4-methylpentan-2-yl)amino)ethan-1-one]: 63 nM; `COc1ccc(-c2[nH]c3ccc(C4CCN(C(=O)CNC[C@@H](F)C(C)(C)O)CC4)cc3c2C(C)C)cc1OC` [Example 251, (R)-1-(4-(2-(3,4-dimethoxyphenyl)-3-isopropyl-1H-indol-5-yl)piperidin-1-yl)-2-((2-fluoro-3-hydroxy-3-methylbutyl)amino) ethan-1-one]: 750 nM; `COc1ccc(-c2[nH]c3ccc(C4CCN(CC(=O)N[C@H]5CC[C@H](C(C)(C)O)CC5)CC4)cc3c2C(C)C)cc1OC` [Example 279, 2-(4-(2-(3,4-dimethoxyphenyl)-3-isopropyl-1H-indol-5-yl)piperidin-1-yl)-N-((1r,4r)-4-(2-hydroxypropan-2-yl)cyclohexyl)acetamide]: 1160 nM.
In turn, `COc1ccc(-c2[nH]c3ccc(C4CCN(C(=O)CN5CCC[C@H](C(=O)N6CCN(c7cccc(C(F)(F)F)c7)CC6)C5)CC4)cc3c2C(C)C)cc1OC` [Example 290, (S)-1-(4-(2-(3,4-dimethoxyphenyl)-3-isopropyl-1H-indol-5-yl)piperidin-1-yl)-2-(3-(4-(3-(trifluoromethyl)phenyl)piperazine-1-carbonyl)piperidin-1-yl)ethan-1-one] registered a half-maximal inhibitory concentration (IC50) of 803 nM.
Next, `CNCC(=O)N1CCC(c2ccc3[nH]c(-c4ccc(OC)c(OC)c4)c(C(C)C)c3c2)CC1` [Example 256, 1-(4-(2-(3,4-dimethoxyphenyl)-3-isopropyl-1H-indol-5-yl)piperidin-1-yl)-2-(methylamino)ethan-1-one]: 35 nM; `COc1ccc(-c2[nH]c3ccc(C4CCN(C(=O)CN5CCC[C@H](C(=O)NCCNC(C)=O)C5)CC4)cc3c2C(C)C)cc1OC` [Example 295, (S)—N-(2-acetamidoethyl)-1-(2-(4-(2-(3,4-dimethoxyphenyl)-3-isopropyl-1H-indol-5-yl)piperidin-1-yl)-2-oxoethyl) piperidine-3-carboxamide]: 22 nM.
